Assay results from patent US8354416B2 (Glaxo Group Limited, priority 2005, dated 2013).
Where a name gives a salt, the structure may show the parent alone.

System: influx of neutrophils to the lung in LPS-challenged rats
Assay: Rat LPS neutrophilia model
Format: in vivo
Conditions: intratracheal, LPS aerosol 100 ug/ml, in at least one of the range of conditions tested, significance p<0.05
Method: Rat LPS Neutrophilia Model
The effect of compounds on the influx of neutrophils to the lung in LPS-challenged rats is evaluated as follows. The test compound is suspended in one of the following solutions: 0.5% tween 80/PBS, 0.5% tween 80/saline, 10% EtOH/saline (with pH adjusted to 2.0, or 8.0 with HCl, or unadjusted), Saline (pH 2.0, 6.5 or 8.0, 0.5% Tragacanth, 1% DMSO/20% Encapsin/Saline, or acidified 5% Tragacanth. The suspension process may be aided by the use of a glass homogenizer. For intratracheal administration, the animals are anesthetized with inhaled isoflurane and placed in a supine position, the trachea is intubated with a steel gavage needle (1.5 inch, 22 gauge, small ball) or a Penn-Century Microsprayer Aerosolizer (model IA-1B) and 200 ul of dosing solution is delivered. The animals are visually monitored during the recovery process, which typically occurs within two minutes. It is noted that the test compounds may be alternatively administered via the microsprayer in a dry powder blend with a suitable excipient, such as lactose.
Rats treated with compound or vehicle (15 min-24 hours pretreatment) are exposed to an LPS aerosol (100 ug/ml) for 15 min. Four hours later the rats are euthanized with pentobarbital (100 mg/kg, i.p.) and the airways are lavaged with 5 washes of 5 ml of phosphate buffered saline. The harvested cells are stained (Diffquick) and counted to determine total and differential cell data. […] Inhibition of neutrophil levels relative to no compound controls is calculated based on the differential counts.
The data is obtained as % inhibition using a particular concentration and pretreat time.

Structure (SMILES)	inhibition of neutrophilia (neutrophil levels in airway lavage relative to no compound controls)
Cc1ccc(NC(=O)c2ccsc2)cc1-c1nc(NC2CC(C)(C)NC(C)(C)C2)nc2c1ccc(=O)n2-c1c(F)cccc1F [31(e), N-(3-{8-(2,6-difluorophenyl)-7-oxo-2-[(2,2,6,6-tetramethyl-4-piperidinyl)amino]-7,8-dihydropyrido[2,3-d]pyrimidin-4-yl}-4-methylphenyl)-3-thiophenecarboxamide]	statistically significant inhibition of neutrophilia
CCCNC(=O)c1ccc(C)c(-c2nc(NCCNC)nc3c2ccc(=O)n3-c2c(F)cccc2F)c1 [56(d), 3-(8-(2,6-difluorophenyl)-2-{[2-(methylamino)ethyl]amino}-7-oxo-7,8-dihydropyrido[2,3-d]pyrimidin-4-yl)-4-methyl-N-propylbenzamide]	statistically significant inhibition of neutrophilia
Cc1ccc(C(=O)Nc2nccs2)cc1-c1nc(NCc2ncc[nH]2)nc2c1ccc(=O)n2-c1c(F)cccc1F [79(c), 3-{8-(2,6-difluorophenyl)-2-[(1H-imidazol-2-ylmethyl)amino]-7-oxo-7,8-dihydropyrido[2,3-d]pyrimidin-4-yl}-4-methyl-N-1,3-thiazol-2-ylbenzamide]	statistically significant inhibition of neutrophilia
CNC1CCN(c2nc(-c3cc(C(=O)NC(C)C)ccc3C)c3ccc(=O)n(-c4c(F)cccc4F)c3n2)CC1 [113(b), 3-{8-(2,6-difluorophenyl)-2-[4-(methylamino)-1-piperidinyl]-7-oxo-7,8-dihydropyrido[2,3-d]pyrimidin-4-yl}-4-methyl-N-(1-methylethyl)benzamide]	statistically nonsignificant inhibition of neutrophilia
Cc1ccc(C(=O)NC(C)C)cc1-c1nc(N2CCC(N3CCC(C)CC3)CC2)nc2c1ccc(=O)n2-c1c(F)cccc1F [163(c), 3-[8-(2,6-difluorophenyl)-2-(4-methyl-1,4′-bipiperidin-1′-yl)-7-oxo-7,8-dihydropyrido[2,3-d]pyrimidin-4-yl]-4-methyl-N-(1-methylethyl)benzamide]	statistically nonsignificant inhibition of neutrophilia
CNCCNc1nc(-c2cc(C(=O)NCC3CC3)ccc2C)c2ccc(=O)n(-c3c(F)cccc3F)c2n1 [Example 4]	statistically significant inhibition of neutrophilia
Cc1ccc(C(=O)NC2CC2)cc1-c1nc(N2CCC(N)CC2)nc2c1ccc(=O)n2-c1c(F)cccc1F [Example 22, 3-[2-(4-amino-1-piperidinyl)-8-(2,6-difluorophenyl)-7-oxo-7,8-dihydropyrido[2,3-d]pyrimidin-4-yl]-N-cyclopropyl-4-methylbenzamide]	statistically significant inhibition of neutrophilia
Cc1ccc(C(=O)NC2CC2)cc1-c1nc(NCc2ncc[nH]2)nc2c1ccc(=O)n2-c1c(F)cccc1F [Example 23, N-cyclopropyl-3-{8-(2,6-difluorophenyl)-2-[(1H-imidazol-2-ylmethyl)amino]-7-oxo-7,8-dihydropyrido[2,3-d]pyrimidin-4-yl}-4-methylbenzamide]	statistically nonsignificant inhibition of neutrophilia
CCCNCCNc1nc(-c2cc(C(=O)NC3CC3)ccc2C)c2ccc(=O)n(-c3c(F)cccc3F)c2n1 [Example 24, N-cyclopropyl-3-(8-(2,6-difluorophenyl)-7-oxo-2-{[2-(propylamino)ethyl]amino}-7,8-dihydropyrido[2,3-d]pyrimidin-4-yl)-4-methylbenzamide]	statistically nonsignificant inhibition of neutrophilia
Cc1ccc(C(=O)NC2CC2)cc1-c1nc(NCCN(C)C)nc2c1ccc(=O)n2-c1c(F)cccc1F [Example 25]	statistically nonsignificant inhibition of neutrophilia
Cc1ccc(C(=O)NCC2CC2)cc1-c1nc(N2CCC(N)CC2)nc2c1ccc(=O)n2-c1c(F)cccc1F [Example 27, 3-[2-(4-amino-1-piperidinyl)-8-(2,6-difluorophenyl)-7-oxo-7,8-dihydropyrido[2,3-d]pyrimidin-4-yl]-N-(cyclopropylmethyl)-4-methylbenzamide]	statistically significant inhibition of neutrophilia
Cc1ccc(C(=O)NCCc2ccccc2)cc1-c1nc(NC2CC(C)(C)NC(C)(C)C2)nc2c1ccc(=O)n2-c1c(F)cccc1F [Example 28, 3-{8-(2,6-difluorophenyl)-7-oxo-2-[(2,2,6,6-tetramethyl-4-piperidinyl)amino]-7,8-dihydropyrido[2,3-d]pyrimidin-4-yl}-4-methyl-N-(2-phenylethyl)benzamide]	statistically nonsignificant inhibition of neutrophilia
CNCCNc1nc(-c2cc(C(=O)NCCc3ccccc3)ccc2C)c2ccc(=O)n(-c3c(F)cccc3F)c2n1 [Example 29, 3-(8-(2,6-difluorophenyl)-2-{[2-(methylamino)ethyl]amino}-7-oxo-7,8-dihydropyrido[2,3-d]pyrimidin-4-yl)-4-methyl-N-(2-phenylethyl)benzamide]	statistically significant inhibition of neutrophilia
Cc1ccc(NC(=O)c2ccsc2)cc1-c1nc(N2CCC(N)CC2)nc2c1ccc(=O)n2-c1c(F)cccc1F [Example 32, N-{3-[2-(4-amino-1-piperidinyl)-8-(2,6-difluorophenyl)-7-oxo-7,8-dihydropyrido[2,3-d]pyrimidin-4-yl]-4-methylphenyl}-3-thiophenecarboxamide]	statistically nonsignificant inhibition of neutrophilia
Cc1ccc(C(=O)NC(C)C)cc1-c1nc(N(C)CCCN(C)C)nc2c1ccc(=O)n2-c1c(F)cccc1F [Example 34, 3-{8-(2,6-difluorophenyl)-2-[[3-(dimethylamino)propyl](methyl)amino]-7-oxo-7,8-dihydropyrido[2,3-d]pyrimidin-4-yl}-4-methyl-N-(1-methylethyl)benzamide]	statistically significant inhibition of neutrophilia
Cc1ccc(NC(=O)c2cccc3cc[nH]c23)cc1-c1nc(NC(CO)CO)nc2c1ccc(=O)n2-c1c(F)cccc1F [Example 44, N-[3-(8-(2,6-difluorophenyl)-2-{[2-hydroxy-1-(hydroxymethyl)ethyl]amino}-7-oxo-7,8-dihydropyrido[2,3-d]pyrimidin-4-yl)-4-methylphenyl]-1H-indole-7-carboxamide trifluoroacetate]	statistically significant inhibition of neutrophilia
CNCCNc1nc(-c2cc(C(=O)NC(C)C)ccc2C)c2ccc(=O)n(-c3c(F)cccc3F)c2n1 [Example 57, 3-(8-(2,6-difluorophenyl)-2-{[2-(methylamino)ethyl]amino}-7-oxo-7,8-dihydropyrido[2,3-d]pyrimidin-4-yl)-4-methyl-N-(1-methylethyl)benzamide]	statistically significant inhibition of neutrophilia
